Reference: patent US20060166934A1, “Composition comprising phytosphingosine derivatives for apoptosis induction” (Tae-Yoon Kim, priority 2002, published 2006)
Read-outs that look alike come from different tables or passages of the source.

What was measured:
[1] = tested on: Th1 cells activation; experiment: Mixed leukocyte reaction (MLR), Th1 cells activation by TNBSO3, MTT assay; format: cell-based, mice; settings: MLR with TNBSO3-conjugated stimulator cells, FIG. 4
Experimental: Whether the composition of the present invention has a suppressive effect on the Th1 cells activation which isolate […], IL-12, etc. by reacting with TNBSO3 […] was examined.
The mononuclear cells obtained from spleen of mice as described the above 4 were used for responder cells, and TNBSO3-conjugated cells were used for stimulator cells. The stimulator cells were obtained as follows:
The mononuclear cells were adjusted to be 2×10^7 cells/ml in PBS and the same volume of 20 mM TNBSO3 was added and incubated at 37° C. for 10 min in the dark state. After incubation, the cells wrer washed three times with PBS.
(§1) Each 2×10^5 responder cells and stimulator cells were mixed with each other and cultured for 5 days on the 96-well plate. And RPMI with 10% of serum was used as a medium.
(§2) The above cells were cultured for 24 hours in the presence of 1, 10, 50 and 100 μM of NAPS, TAPS, and PS to examine the proliferation of the cells.
(§3) C2-ceramide was used as control.

[2] = tested on: A431 cells, human skin cancer cell line; experiment: MTT assay, cytotoxicity in human skin cancer cell line; format: cell-based; settings: human, 24 h
Experimental: (§4) Firstly, the cytotoxicity is measured by the MTT assay. Phytosphingosine (PS), phytosphingosine-HCl (PS-HCl), C6-phytosphingosine (C6-PS), CLA-phytosphingosine (CLA-PS), tetraacetyl phytosphingosine (TAPS), and N-acetyl phytosphingosine (NAPS) are dissolved into DMSO to have the final concentration of 1-100 μM.
(§5) In order to study the effects of the compositions of the present invention on the cytotoxicity in the human keratinocyte cell line HaCaT cells, the cell viability is analyzed by the MTT (3-[4,5-dimethylthiazol-2-yl]-2,5-diphenyltetrazolium bromide) assay. HaCaT cells are supplied by Professor N. Fuseng of German Cancer Research in Germany. HaCaT cells are seeded in a density of 1×10^6 cells in a […] and cultured in DMEM (Dulbecco's Modified Eagle Medium) containing 10% fetal bovine serum (FBS, GIBCO), 100 units/ml penicillin, and 100 μg/ml streptomycin for 48 hours. They are treated with trypsin and 1-2×10^4 cells per well are seeded again in a 96-well plate by using a serum-free culture medium, about 3 hours after which they are cultured by treatment with phytosphingosine derivatives. After they are cultured for 24 hours, the MTT reagent is added at a concentration of 2 mg/ml, cultured for 4 hours, suspended in DMSO after removing the culture medium completely in order to measure O.D. at 540 nm. C2-ceramide is used for comparison.
(§6) In order to study the effects of the compositions of the present invention on the cytotoxicity in A431 cells, human skin cancer cell line, the MTT assay is used. The method of cell culture and MTT assay are the same as those in the above method. C2-ceramide is used for comparison.

[3] = as above; format: cell-based; settings: human, Cell viability
Experimental: as §4, §5, §6

[4] = MTT assay, cytotoxicity in immune cells separated from spleen of mice; format: cell-based; settings: BDF, mouse
Experimental: The effect of the composition of the present invention on the cytotoxicity in immune cells (T cells, B cells, macrophages, monocytes, etc.) was examined. The spleen was removed from normal mice (BDF) and single cells were obtained from the spleen by mechanical aggregation method. And mononuclear cells containing T cells, B cells, macrophages and monocytes were isolated from single cells by density gradient centrifugation method using Ficoll Hypaque. Briefly, single cells were treated with PBS and overlayed on Ficoll Hypaque and centrifuged at 1500 rpm for 30 min. After centrifugation, the cells around the boundary of the Ficoll-Hapaque were collected and washed three times with PBS. The isolated cells were cultured for 24 hours in the presence of 1, 10, 50 and 100 μM of NAPS, TAPS, and PS to examine the effect of cytotoxicity, i.e. the degree of proliferation of the cells. C2-ceramide was used as control. The medium used in this experiment was RPMI 1640 suplemented with 10% of FBS and 100 μg/ml of penicillin and streptomycin.

[5] = tested on: Th1 cells activation against allogenic cells (PBMC); experiment: Reactions among allogenic cells, Th1 cells activation, MTT assay; format: cell-based, human; settings: FIG. 5
Description: Whether the composition of the present invention has a suppressive effect on the Th1 cells activation by allogenic cells in immune reation was examined.
PBMC obtained from different volunteers as described in the above 5 were used for responder cells and stimulator cells respectively. PBMC for stimulator cells were used after X-ray irradiation (3000 rad) to inhibit the proliferation of stimulator cells.
as §1, §2, §3

[6] = MTT assay, cytotoxicity in human keratinocyte cell line; format: cell-based; settings: human, Cell viability
Experimental: as §4, §5

[7] = MTT assay, combined treatment with UVB irradiation; format: cell-based, human; parameters: Cell viability: unit not given here; settings: human, HaCaT cells, HaCaT, read-out: Cell viability
Experimental: (§7) In order to study the synergistic effect in the cytotoxicity by the cotreatment with administration of the compositions of the present invention and with UVB irradiation, the cell viability is analyzed by MTT assay method in HaCaT cells. On a 100-mm dish, 1×10^6 HaCaT cells are seeded and cultured in DMEM containing 10% fetal bovine serum, 100 units/ml penicillin, and 100 μg/ml streptomycin for 48 hours. They are treated with trypsin, and 1-2×10^4 cells per well are seeded on a 96-well plate again by using a serum-free medium, which is removed after about 3 hours. HaCaT cells are washed with PBS three times, and 3.5 ml of PBS per plate is added. It is then irradiated with 200 J/m^2 of UVB. After irradiation, the medium is replaced with a DMEM medium. Then it is treated with the phytosphingosine derivatives of the present invention, and cultured for 24 hours. After 2 mg/ml of the MTT reagent is added, it is cultured for 4 hours. The medium is removed completely, the cells are suspended in DMSO, and O.D. is measured at 540 nm.

[8] = tested on: HaCaT cells; experiment: MTT assay, combined treatment with UVB irradiation; format: cell-based, human; parameters: Cell viability: unit not given here; settings: 1 μM, no UVB, 24 hours, HaCaT
Experimental: as §7

[9] = tested on: human umbilical vein endothelial cells (HUVEC); experiment: MTT assay, cytotoxicity in HUVEC; format: cell-based; settings: human, 24 h, 30 μM
Experimental: as §4, §5
(§8) The MTT assay is used for the above purpose. Primary human umbilical vein endothelial cells are cultured from the human umbilical vein. The method of cell culture and the MTT assay are the same as those in the above. C2-ceramide is used for comparison.

[10] = MTT assay, cytotoxicity in HUVEC; format: cell-based, human; settings: human
Experimental: as §4, §5, §8

[11] = tested on: HaCaT cells human keratinocyte cell line; experiment: MTT assay, combined administration with Vit D3 or calcipotriol; format: cell-based; settings: 1 μM singly, 24 hours
Experimental: (§9) In order to study the synergistic effect in the cytotoxicity when the compositions of the present invention are administered in combination with Vit D3 or calcipotriol, the cell viability is analyzed by MTT assay method in HaCaT cells human keratinocyte cell line.
(§10) To HaCaT cells, 1 μM of Vit D3 or calcipotriol, or 10 μM each of NAPS and TAPS, is administered singly or in combination with each other, and they are cultured for 24 hours. And the effects of these drugs on the cytotoxicity according to the single or combined administration are observed by MTT assay. C2-ceramide is used for comparison.

[12] = as above; format: cell-based, human; settings: human, HaCaT cells, 1 μM singly, 24 hours, HaCaT; read-out: Cell viability
Experimental: as §9, §10

For CCCCCCCCCCCCCC[C@@H](O)[C@@H](O)[C@@H](N)CO [PS, phytosphingosine], the “concentration showing a suppressive effect on Th1 cells activation” value [1] was 50 µM, the Cell viability ([2]; 10 µM) was 30 ± 1.9 and the cytotoxicity ([2]; 50 μM) was 95-98%. It also gave a viability at 24 h, 3 µM [3] of 85 ± 10.7%, a viability at 24 h, 50 µM [3] of 2 ± 0.2% and an IC50 at 24 h [4] of ~75 µM. For the same compound, the “suppressive effect on Th1 cells activation against allogenic cells” value ([5]; 50 μM) was “suppress completely”, the “concentration showing a suppressive effect on Th1 cells activation against allogenic cells” value [5] was 50 μM and the viability at 24 h, 1 µM [6] was 97 ± 11.1%. For the same compound, the viability at 24 h, 3 µM [6] was 93 ± 3%, the viability at 24 h, 10 µM [6] was 86 ± 10.1% and the viability at 24 h, 30 µM [6] was 51 ± 9.6%. For the same compound, the viability at 24 h, 1 µM ([7]; 1 μM + UVB 200 J/m^2, 24 hours) was 38 ± 7.9%, the viability at 24 h, 3 µM ([7]; 3 μM + UVB 200 J/m^2, 24 hours) was 30 ± 3.3% and the viability at 24 h, 3 µM ([7]; 3 μM, no UVB, 24 hours) was 93 ± 5.5%. The viability at 24 h, 5 µM ([7]; 5 μM + UVB 200 J/m^2, 24 hours) was 28 ± 2.3%, the viability at 24 h, 5 µM ([7]; 5 μM, no UVB, 24 hours) was 85 ± 10.6% and the viability at 24 h, 10 µM ([7]; 10 μM + UVB 200 J/m^2, 24 hours) was 3 ± 0.9%. The viability at 24 h, 10 µM ([7]; 10 μM, no UVB, 24 hours) was 71 ± 7.6%, the Cell viability [8] was 133 ± 3.4 and the cytotoxicity [9] was 86-91%. The viability at 24 h, 3.5 µM [10] was 64 ± 4.7%, the viability at 24 h, 7 µM [10] was 19 ± 1.8% and the viability at 24 h, 15 µM [10] was 14 ± 0.9%. It also gave a viability at 24 h, 30 µM [10] of 13 ± 1%.

With C=C1/C(=C\C=C2/CCC[C@]3(C)[C@@H]([C@H](C)/C=C/[C@@H](O)C4CC4)CC[C@@H]23)C[C@@H](O)C[C@@H]1O [calcipotriol, reference compound] the toxicity [11] was 23% and the viability at 24 h, 1 µM [12] was 77 ± 5%.
